Measured values published in the supplement of paper PMC10307832.

How the values were obtained:
Test in all cases: relative viability (nuclei count vs DMSO), 5 days (fraction); higher = more cells survive
AZD6482 + Luminespib = compound: Cc1cc([C@@H](C)Nc2ccccc2C(=O)O)c2nc(N3CCOCC3)cc(=O)n2c1 [AZD6482] + CCNC(=O)c1noc(-c2cc(C(C)C)c(O)cc2O)c1-c1ccc(CN2CCOCC2)cc1 [Luminespib] (partner 0.01 µM)
How it was run: (§1)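 After 5 days of treatment, lung cancer cells in 1536-well plates were fixed and stained in a single step (final 0.05% Triton X-100, 1% formaldehyde, 1 ug/ml Hoechst) and their nuclei counted on 4× images. Treatment had been applied by pin tool the day after seeding as one drug alone or as a fixed anchor-drug dose with five library-drug doses (not always all listed) in √10 steps. Relative viability is the nuclei count of treated wells divided by that of vehicle wells, and values are medians of duplicate plates.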

AZD6482 + Alpelisib = compound: Cc1cc([C@@H](C)Nc2ccccc2C(=O)O)c2nc(N3CCOCC3)cc(=O)n2c1 [AZD6482] + Cc1nc(NC(=O)N2CCC[C@H]2C(N)=O)sc1-c1ccnc(C(C)(C)C(F)(F)F)c1 [Alpelisib] (partner 2 µM)
How it was run: as §1

[1] = compound: COc1cc2nc(N3CCCN(C)CC3)nc(NC3CCN(Cc4ccccc4)CC3)c2cc1OC + N=C(N)NC(=N)NCCc1ccccc1 [Phenformin] (partner 250 µM)
How it was run: as §1

[2] = compound: COc1cc2nc(N3CCCN(C)CC3)nc(NC3CCN(Cc4ccccc4)CC3)c2cc1OC + CC1(C)CCC(c2ccc(Cl)cc2)=C(CN2CCN(c3ccc(C(=O)NS(=O)(=O)c4ccc(N[C@H](CCN5CCOCC5)CSc5ccccc5)c(S(=O)(=O)C(F)(F)F)c4)cc3)CC2)C1 [Navitoclax] (partner 0.5 µM)
How it was run: as §1

Cell Line | relative viability (AZD6482 + Luminespib; first compound 0.08 µM) | relative viability (AZD6482 + Luminespib; first compound 0.253 µM) | relative viability (AZD6482 + Luminespib; first compound 0.8 µM) | relative viability (AZD6482 + Luminespib; first compound 2.53 µM) | relative viability (AZD6482 + Luminespib; first compound 8 µM) | relative viability (AZD6482 + Alpelisib; first compound 0.08 µM) | relative viability (AZD6482 + Alpelisib; first compound 0.253 µM) | relative viability (AZD6482 + Alpelisib; first compound 0.8 µM) | relative viability (AZD6482 + Alpelisib; first compound 2.53 µM) | relative viability (AZD6482 + Alpelisib; first compound 8 µM) | relative viability ([1]; first compound 0.2 µM) | relative viability ([1]; first compound 0.6325 µM) | relative viability ([1]; first compound 2 µM) | relative viability ([1]; first compound 6.325 µM) | relative viability ([2]; first compound 0.2 µM) | relative viability ([2]; first compound 0.6325 µM) | relative viability ([2]; first compound 2 µM) | relative viability ([2]; first compound 6.325 µM)
HCC-827 | 0.601 | 0.478 | 0.293 | 0.27 | 0.196 | 0.613 | 0.506 | 0.456 | 0.33 | 0.351 | 0.405 | 0.431 | 0.294 | 0.402 | 1.01 | 1.01 | 0.988 | 1.01
HOP-62 | 0.889 | 1.01 | 1.11 | 0.793 | 1.04 | 1 | 0.959 | 1.19 | 0.531 | 0.903 | 0.684 | 0.629 | 0.721 | 0.641 | 0.856 | 1.07 | 1.15 | 1.02
IA-LM | – | – | – | – | – | 0.638 | 0.585 | 0.631 | 0.313 | 0.809 | – | – | – | – | 0.761 | 0.689 | 1.01 | 0.64
LC-2-ad | 0.976 | 0.954 | 1.28 | 0.914 | 1.12 | 0.704 | 0.597 | 0.668 | 0.467 | 0.507 | 0.528 | 0.568 | 0.644 | 0.521 | 0.363 | 0.447 | 0.444 | 0.397
LCLC-97TM1 | 0.77 | 0.803 | 0.66 | 0.327 | 0.282 | 0.274 | 0.19 | 0.238 | 0.187 | 0.204 | 0.432 | 0.401 | 0.503 | 0.465 | 0.37 | – | 0.34 | 0.444
LCLC-103H | 0.741 | 0.751 | 0.804 | 0.602 | 0.64 | 0.877 | 0.747 | 0.701 | 0.605 | 0.553 | 0.36 | 0.344 | 0.367 | 0.36 | – | – | – | –
LK-2 | 0.231 | 0.187 | 0.229 | 0.177 | 0.167 | 1.07 | – | 1.86 | 0.972 | 1.21 | 0.504 | 0.569 | 0.576 | 0.311 | 0.91 | 0.843 | 1.16 | 0.637
LOU-NH91 | 0.326 | 0.293 | 0.343 | 0.27 | 0.335 | 0.547 | 0.676 | 0.647 | 0.525 | 0.639 | 0.643 | 0.803 | 0.506 | 0.674 | 0.717 | 0.688 | 0.578 | 0.742
LU99A | 0.323 | 0.26 | 0.334 | 0.237 | 0.238 | 0.452 | 0.441 | 0.619 | 0.372 | 0.421 | 0.846 | 0.827 | 0.691 | 0.857 | 0.899 | 0.689 | 0.625 | 0.815
LXF-289 | 0.688 | 0.655 | 0.724 | 0.409 | 0.379 | 0.946 | 1.01 | 0.966 | 0.798 | 0.706 | 0.511 | 0.507 | 0.527 | 0.525 | 0.894 | 0.938 | 1.01 | 0.905
NCI-H23 | 0.235 | – | 0.249 | 0.207 | 0.201 | 0.642 | 0.534 | 0.713 | 0.374 | 0.597 | 0.743 | 0.717 | 0.936 | 0.794 | 0.757 | 0.882 | 1.02 | 0.722
NCI-H322M | 0.776 | 0.472 | 0.783 | 0.465 | 0.496 | 0.574 | 0.553 | 0.573 | 0.474 | 0.48 | 0.669 | 0.743 | 0.748 | 0.762 | 1.12 | 1.12 | 1.19 | 1.21
NCI-H358 | 0.422 | 0.485 | 0.338 | 0.173 | 0.199 | 0.657 | 0.978 | 0.705 | 0.39 | 0.833 | 0.318 | 0.522 | 0.296 | 0.305 | – | – | – | –
NCI-H522 | 1.22 | 1.07 | 0.879 | 0.946 | 0.88 | – | – | – | – | – | 0.649 | 0.68 | 0.613 | 0.745 | – | – | – | –
NCI-H650 | 0.657 | – | 0.898 | 0.647 | 0.509 | 1.11 | – | 0.997 | 0.656 | 0.778 | 0.454 | 0.459 | 0.466 | 0.427 | – | – | – | –
NCI-H661 | 0.959 | 0.945 | 0.968 | 0.635 | 0.918 | 0.656 | 0.454 | 0.486 | – | 0.419 | 0.295 | 0.296 | 0.27 | 0.266 | – | – | – | –
NCI-H1299 | – | – | – | – | – | 1.14 | 1.17 | 1.27 | 1.04 | 1.28 | – | – | – | – | 1.07 | 1.04 | 1.09 | 1.02
NCI-H1563 | 0.504 | 0.541 | 0.584 | 0.478 | 0.522 | 0.753 | 0.703 | 0.672 | 0.661 | 0.688 | 0.638 | 0.75 | 0.68 | 0.666 | – | – | – | –
NCI-H1623 | 0.48 | 0.402 | 0.472 | 0.45 | 0.413 | – | – | – | – | – | 0.62 | 0.621 | 0.522 | 0.569 | – | – | – | –
NCI-H1650 | 0.182 | 0.189 | 0.204 | 0.186 | 0.194 | – | – | – | – | – | 0.494 | 0.612 | 0.379 | 0.369 | 1.25 | 1.07 | 1.48 | 1.07
NCI-H1703 | – | – | – | – | – | 0.273 | 0.179 | 0.194 | 0.167 | 0.231 | – | – | – | – | 1.25 | 0.92 | 1.11 | 0.41
NCI-H2342 | 0.67 | 0.54 | 0.504 | 0.391 | 0.608 | – | – | – | – | – | 0.597 | 0.512 | 0.649 | 0.606 | – | – | – | –
SW 900 | 0.152 | 0.137 | 0.153 | – | 0.153 | – | – | – | – | – | 0.522 | 0.682 | 0.645 | 0.47 | – | – | – | –
